Assay results published in patent US6827926B2, “Metallotetrapyrrolic photosensitizing agents for use in photodynamic therapy” (Miravant Pharmaceuticals, Inc., priority 2001, dated 2004).
Read-outs that look alike come from different tables or passages of the source.

Legend:
[1] = test system: normal uninjured rat carotid arteries (medial and adventitial cell populations); test: In vivo rat carotid artery acellularity after PDT; design: species or system Sprague Dawley rats; settings: for accelularity in rat artery at a four hour treatment point: 4 hrs post administration; for Max % rat Artery Accelularity: Table 3; for Max % Rat Artery Acceluarity: Table 5
How it was run: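 Metallated photosensitizers light-activated in normal uninjured rat left common carotid via balloon catheter introduced through femoral arteriotomy under isoflurane; excitation 575 nm (Ga, Zn, Al, Sn) or 532 nm (Pt). Arteries harvested 3 days post-treatment, H&E-stained; medial and adventitial cell density assessed by light microscopy.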

[2] = test system: V79 (Chinese Hamster Lung Fibroblasts) cells; test: In vitro cytotoxicity assay (light EC50, Alamar blue); format: cell-based
How it was run: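 V79 cells in phenol-free 5% FBS/DMEM exposed 24 h to photosensitizer at final 0.01–5.0 μM, six replicates, then washed and light-treated, with a dark plate as control. Survival by Alamar blue after 24 h dark incubation, read at 570/600 nm.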

[3] = test system: normal skin of CD Hairless male rats; format: in vivo, rat
How it was run: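 Liposomal egg yolk phospholipid photosensitizer given as single i.v. tail-vein bolus at 1, 1.5 and 2 μmol/kg; skin spots irradiated with 532 nm laser (150 mW/cm^2, 150J, 1 cm) at 1, 6, 24, 48, 96 hrs post injection. Value is time of last observed skin response spot.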

[4] = Table 4, drug dose 1 μMol, 575 nm (Pt 532 nm)
[5] = Table 4 azaporphyrins, 575 nm (Pt azaporphyrins 532 nm), 1.25 J/cm^2, read-out: In Vitro EC(50)
[6] = Table 3 porphyrins, 24 h drug incubation, 532 nm, 1.25 J/cm^2, read-out: In Vitro EC50 Light
[7] = drug dose 1 μMol, 50 J/cm^2, 3 days post treatment
[8] = Table 5 plant derived gallium porphyrins, light, read-out: In Vitro EC(50)
[9] = Table 3, time of last skin spot observed post injection, 1 μmol, 532 nm laser

Compound | Normal skin Response (1 μmol) ([3]; rat, in vivo) | EC50 [2, 6] | Max % rat Artery Accelularity [1, 7] | also measured
CCC1=C(CC)C2=Nc3c(CC)c(CC)c4[n]3[Sn]([Cl])([Cl])[n]3c(c(C)c(CCC(=O)NC)c3=CC3=NC(=C4)C(C)=C3CCC(=O)NC)=CC1=N2 [Example 90, Tin (IV) Dichloride 7,8,12,13-tetraethyl-12,17-dimethyl-10-azaporphyrin-2,18-di(propionic acid methyl amide)] | 96 h | – | – | Max % Rat Artery Accelularity [1, 4]: 30%; EC50 [2, 5]: 500 nM
CCC1=C(CC)C2=Nc3c(CC)c(CC)c4[n]3[In]([Cl])[n]3c(c(C)c(CCC(=O)NC)c3=CC3=NC(=C4)C(C)=C3CCC(=O)NC)=CC1=N2 [Example 91, Indium Chloride 7,8,12,13-tetraethyl-12,17-dimethyl-10-azaporphyrin-2,18-di(propionic acid methyl amide)] | 48 h | – | – | Max % Rat Artery Accelularity [1, 4]: 50%; EC50 [2, 5]: 70 nM
CCC1=C(CC)C2=Nc3c(CC)c(CC)c4[n]3[Ga]([Cl])[n]3c(c(C)c(CCCC(=O)OC)c3=CC3=NC(=C4)C(C)=C3CCCC(=O)OC)=CC1=N2 [Example 108, Gallium Chloride 7,8,12,13-tetraethyl-12,17-dimethyl-10-azaporphyrin-2,18-di(butanoic acid methyl ester)] | – | – | – | Max % Rat Artery Accelularity [1, 4]: 55%; EC50 [2, 5]: 400 nM; Normal skin Response (1 μmol) ([3]; Table 4, time of last skin spot observed post injection, 1 μmol): 24 h
CCC1=C(C)c2cc3[n-]c(cc4nc(cc5[n-]c(cc1n2)c(C)c5CC)C(C)=C4CCC(=O)[O-])c(CCC(=O)[O-])c3C.[Ga+3].[Na+].[Na+].[OH-] [Example 109, Gallium Hydroxy Mesoporphyrin Disodium Salt] | – | 2400 nM | – | acellularity following PDT of rat arteries at longer treatment times post injection ([1]; 16, 24 hrs post injection): significant acellularity; accelularity in rat artery at a four hour treatment point [1]: 10%; Max % rat Artery Accelularity ([1]; drug dose 1 μMol, 4 hrs): 10/4 hrs. %; Max % rat Artery Accelularity ([1]; drug dose 1 μMol, 24 hrs): 100/24 hrs %; Normal skin Response (1 μmol) in hrs ([3]; rat, in vivo): none; normal skin response at the drug doses used ([3]; rat, in vivo): no observed normal skin response
CCC1=C(C)c2cc3[n-]c(cc4nc(cc5[n-]c(cc1n2)c(C)c5CC)C(C)=C4CCCCC(=O)[O-])c(CCCCC(=O)[O-])c3C.[Ga+3].[Na+].[Na+].[OH-] [Example 114, Gallium Hydroxy 8,13-diethyl-3,7,12,17-tetramethylporphyrin-2,18-di(pentanoic acid sodium salt)] | 24 h | 2300 nM | 20% | –
CCCOC(=O)CCC1=C(C)c2cc3[n-]c(cc4nc(cc5[n-]c(cc1n2)c(CCC(=O)OCCC)c5C)C=C4C)cc3C.[Cl-].[Ga+3] [Example 122, Gallium Chloride Deuteroporphyrin Di-propylester] | 6 h | 350 nM | 95% | –
C=CC1=C(C)C2=Cc3c(C=C)c(C)c4[n]3[Al-2]35([Cl])[n]6c(c(C)c(CCC(=O)OC)c6=CC6=[N+]3C(=C4)C(C)=C6CCC(=O)OC)=CC1=[N+]25 [M=Al R1=V R3=Me R4=V R2=CO2Me] | 6 h | 3500 nM | 0% | –
C=CC1=C(C)C2=Nc3c(C=C)c(C)c4[n]3[Ga-2]35([Cl])[n]6c(c(C)c(CCC(=O)NC)c6=CC6=[N+]3C(=C4)C(C)=C6CCC(=O)NC)=CC1=[N+]25 [M=Ga R1,R3=Me R2,R4=V R=CONHMe] | 24 h | – | – | Max % Rat Artery Accelularity [1, 4]: 50%; EC50 [2, 5]: 500 nM
CCC1=C(C)C2=Cc3c(CC)c(C)c4[n]3[Ga-2]35([Cl])[n]6c(c(C)c(CO)c6=CC6=[N+]3C(=C4)C(C)=C6CCCO)=CC1=[N+]25 [M=Ga R1=CH2OH R2=Et R3=Et R4=CH2OH R5=H] | 48 h | – | – | Max % Rat Artery Acceluarity ([1]; drug dose 1 μMol): 70%; EC50 [2, 8]: 410 nM
CCC1=C(C)C2=Cc3c(CC)c(C)c4[n]3[Ga-2]35([Cl])[n]6c(c(C)c(C(=O)NC)c6=CC6=[N+]3C(=C4)C(C)=C6CCC(=O)O)=CC1=[N+]25 [M=Ga R1=CO2H R2=Et R3=Et R4=CONHMe R5=H] | 6 h | – | – | Max % Rat Artery Acceluarity ([1]; drug dose 1 μMol): 50%; EC50 [2, 8]: 500 nM
CCC1=C(C)C2=Cc3c(CC)c(C)c4[n]3[Ga-2]35([Cl])[n]6c(c(C)c(C(=O)OC)c6=CC6=[N+]3C(=C4)C(C)=C6CCC(=O)NC)=CC1=[N+]25 [M=Ga R1=CONHMe R2=Et R3=Et R4=CO2Me R5=H] | 6 h | – | – | Max % Rat Artery Acceluarity ([1]; drug dose 1 μMol): 65%; EC50 [2, 8]: 420 nM
CCC1=C(C)C2=Cc3c(CC)c(C)c4[n]3[Ga-2]35([Cl])[n]6c(c(C)c(CCCC(=O)OCCF)c6=CC6=[N+]3C(=C4)C(C)=C6CCCC(=O)OCCF)=CC1=[N+]25 [M=Ga R1=Et R3=Me R4=Et R2=CH2CO2CH2CH2F] | 24 h | 400 nM | 75% | –
CCOC(=O)CCCC1=C(C)C2=Cc3c(C)c(CC)c4[n]3[Ga-2]35([Cl])[n]6c(c(C)c(CCCC(=O)OCC)c6=CC1=[N+]23)=CC1=[N+]5C(=C4)C(C)=C1CC [M=Ga R1=Et R3=Me R4=Et R2=CH2CO2Et] | 24 h | 400 nM | 80% | –
CCC1=C(C)C2=Cc3c(CC)c(C)c4[n]3[Ga-2]35([Cl])[n]6c(c(C)c(CCC(=O)O)c6=CC6=[N+]3C(=C4)C(C)=C6CCC(=O)O)=CC1=[N+]25 [M=Ga R1=Et R3=Me R4=Et R2=CO2H] | 24 h | 2000 nM | 15% | accelularity in rat artery at a four hour treatment point [1]: 15%
CCCCCCNC(=O)CCC1=C(C)C2=Cc3c(C)c(CC)c4[n]3[Ga-2]35([Cl])[n]6c(c(C)c(CCC(=O)NCCCCCC)c6=CC1=[N+]23)=CC1=[N+]5C(=C4)C(C)=C1CC [M=Ga R1=Et R3=Me R4=Et R2=CONH(Hexyl)] | – | 400 nM | 60% | Normal skin Response (1 μmol) [3, 9]: 96 h; normal skin responses, time post drug injection ([3]; rats, drug dose 1 μmol/Kg): 96 h
CCC1=C(CC)c2nc1cc1[nH]c(cc3nc(cc4[nH]c(n2)c(CC)c4CC)C(C)=C3CCC(=O)O)c(CCC(=O)O)c1C [M=H2 R1,R3=Et R2,R4=Et R=CO2H] | – | – | – | accelularity in rat artery at a four hour treatment point [1]: 0%; Max % Rat Artery Accelularity [1, 4]: 0%; EC50 [2, 5]: 450 nM; Normal skin Response (1 μmol) in hrs ([3]; rat, in vivo): None
C=CC1=C(C)C2=Cc3c(C=C)c(C)c4[n]3[Sn-2]35([Cl])([Cl])[n]6c(c(C)c(CCC(=O)OC)c6=CC6=[N+]3C(=C4)C(C)=C6CCC(=O)OC)=CC1=[N+]25 [M=Sn R1=V R3=Me R4=V R2=CO2Me] | – | 1400 nM | 10% | Normal skin Response (1 μmol) [3, 9]: 24 h
Aluminum Chloride 7,8,12,13-tetraethyl-12,17-dimethyl-10-azaporphyrin-2,18-di(propionic acid methyl ester) [Example 84] | 48 h | – | – | Max % Rat Artery Accelularity [1, 4]: 50%; EC50 [2, 5]: 40 nM
Aluminum Chloride Mesoporphyrin Dimethyl Ester [Example 30] | 24 h | 3000 nM | 0% | –
Gallium Chloride 3,7,14,17-tetramethyl-5,10-diazaporphyrin-2,8,12,18-tetra(propionic acid methyl ester) [Example 116] | – | – | – | Max % Rat Artery Accelularity ([1]; drug dose 1 (μMol), i.v., 50 J/cm^2, 160 mW/cm^2, Ga excited at 575 nm, sacrifice three days post treatment): 55%; EC50 ([2]; light EC50, metallodiazaporphyrins, read-out: In Vitro EC(50)): 350 nM; Normnal skin Response (1 μmol) ([3]; rat, in vivo): 4
Gallium Chloride 8,13-diethyl-3,7,12,17-tetramethylporphyrin-2,18-di(3′-hydroxypropyl) [Example 7] | 48 h | 550 nM | 95% | reduction of smooth muscle cells in the media and myofibroblasts in the adventitial layers of rat arteries ([1]; text b238): efficient at dramatically reducing the number of smooth muscle cells
Gallium Chloride 8,13-diethyl-3,7,12,17-tetramethylporphyrin-2,18-di(3′-methoxypropyl) [Example 10] | 48 h | 400 nM | 75% | –
Gallium Chloride Chloroporphyrin e6 Trimethyl Ester [Example 13] | 6 h | – | – | Max % Rat Artery Acceluarity ([1]; drug dose 1 μMol): 70%; EC50 [2, 8]: 400 nM
Gallium Chloride Mesoporphyrin III Dimethyl Ester [Example 115] | 6 h | 300 nM | 10% | –
Gallium Chloride Rhodoporphyrin Di-methylester [Example 123] | 6 h | – | – | Max % Rat Artery Acceluarity ([1]; drug dose 1 μMol): 60%; EC50 [2, 8]: 400 nM
Tin (IV) Dichloride Mesoporphyrin Dimethyl Ester [Example 32] | 24 h | 1400 nM | 20% | –
